Patent publication US8889671B2, “Compounds and methods for treating bacterial infections” (AstraZeneca AB, priority 2013, dated 2014)
Like-named read-outs stand apart in the source and are kept apart here.

What was measured:
Klebsiella pneumoniae = assay: Susceptibility testing (MIC) Assay 2, broth microdilution; assay type: cell-based
Haemophilus influenzae = assay: as above; assay type: cell-based
Escherichia coli = assay: as above; assay type: cell-based
Pseudomonas aeruginosa = assay: as above; assay type: cell-based; details: PAO1, read-out: Pae MIC
[1] = target: Escherichia coli DNA gyrase A/B tetramer (Escherichia coli (strain K12), UniProt P0AES4+P0AES6); assay: DNA gyrase supercoiling activity fluorescence polarisation assay; assay type: biochemical; details: Eco Gyr FP Mean IC50, E. coli DNA gyrase supercoiling, 0.3 mM ATP
Method in brief: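 Relaxed triplex-forming plasmid (130 micrograms/mL) supercoiled by 5 nM gyrase A/B tetramer in Tris-HCl pH 7.5 buffer with 4 mM MgCl2 and 0.3 mM ATP, ~30 min, ambient temperature. Quenched with 5′-BODIPY-FL triplex probe at pH 3.5; fluorescence anisotropy read after 60 min. IC50 by nonlinear regression against two control reactions.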

Streptococcus pyogenes = assay: Susceptibility testing (MIC) Assay 1, broth microdilution; assay type: cell-based; details: Streptococcus pyogenes, in vivo strain, read-out: Spy MIC
Streptococcus pneumoniae = assay: as above; assay type: cell-based
Staphylococcus aureus = assay: as above; assay type: cell-based; details: Staphylococcus aureus
[2] = clinical isolate, mucoid, read-out: Kpn MIC
[3] = ATCC51907, Haemophilus influenzae, ATCC 51907, in vivo strain, read-out: Hin MIC
[4] = in vivo strain (footnote b), read-out: Spn(b) MIC
[5] = in vivo strain (footnote c), read-out: Spn(c) MIC
[6] = Staphylococcus aureus in vivo strain, MSQS, read-out: Sau(d) MIC
[7] = in vivo strain, MRQR, read-out: Sau(e) MIC

| Structure (SMILES) | MIC (Klebsiella pneumoniae; [2]) [µM] | MIC (Haemophilus influenzae; [3]) [µM] | MIC (Escherichia coli; K12, read-out: Eco MIC) [µM] | MIC (Pseudomonas aeruginosa) [µM] | IC50 [1] [µM] | MIC (Streptococcus pyogenes; Streptococcus pyrgenes) [µM] | MIC (Streptococcus pneumoniae; [4]) [µM] | MIC (Streptococcus pneumoniae; [5]) [µM] | MIC (Staphylococcus aureus; [6]) [µM] | MIC (Staphylococcus aureus; [7]) | MIC (Staphylococcus aureus; serum, read-out: Sau(f) MIC) [µM] | other results |
| --- | --- | --- | --- | --- | --- | --- | --- | --- | --- | --- | --- | --- |
| C[C@@H]1CN2c3c(cc4c(N5C(=O)OC[C@@H]5C5CC5)noc4c3F)CC3(C(=O)NC(=O)NC3=O)[C@H]2[C@H](C)O1 [Example 52] | 200 | 0.78 | 25 | > 200 | 0.9 | 0.78 | 1.6 | 1.6 | 0.78 | 1.6 µM | 3.1 | – |
| CCOC[C@H]1COC(=O)N1c1noc2c(F)c3c(cc12)CC1(C(=O)NC(=O)NC1=O)[C@H]1[C@H](C)O[C@H](C)CN31 [Example 49, (2R,4S,4aS)-8-[(4S)-4-(Ethoxymethyl)-2-oxo-1,3-oxazolidin-3-yl]-11-fluoro-2,4-dimethyl-1,2,4,4a-tetrahydro-2′H,6H-spiro[1,4-oxazino[4,3-a][1,2]oxazolo[4,5-g]quinoline-5,5′-pyrimidine]-2′,4′,6′(1′H,3′H)-trione] | > 200 | 1.6 | 50 | > 200 | 0.38 | 0.78 | 0.78 | 1.6 | 0.39 | 0.78 µM | 0.78 | – |
| C[C@@H]1CN2c3c(cc4c(N5C[C@@H](C#N)OC5=O)noc4c3F)CC3(C(=O)NC(=O)NC3=O)[C@H]2[C@H](C)O1 [Example 76, (5S)-3-[(2R,4S,4aS)-11-fluoro-2,4-dimethyl-2′,4′,6′-trioxo-1,1′,2,3′,4,4′,4a,6′-octahydro-2′H,6H-spiro[1,4-oxazino[4,3-a][1,2]oxazolo[4,5-g]quinoline-5,5′-pyrimidin]-8-yl]-2-oxo-1,3-oxazolidine-5-carbonitrile] | > 200 | 0.78 | 50 | > 200 | 0.55 | 0.39 | 0.39 | 0.78 | 0.39 | 1.6 µM | 0.78 | – |
| COC[C@H]1[C@@H](C)OC(=O)N1c1noc2c(F)c3c(cc12)CC1(C(=O)NC(=O)NC1=O)[C@H]1[C@H](C)O[C@H](C)CN31 [Example 79, (2R,4S,4aS)-11-fluoro-8-((4S,5R)-4-(methoxymethyl)-5-methyl-2-oxooxazolidin-3-yl)-2,4-dimethyl-2,4,4a,6-tetrahydro-1H,1′H-spiro[isoxazolo[4,5-g][1,4]oxazino[4,3-a]quinoline-5,5′-pyrimidine]-2′,4′,6′(3′H)-trione] | – | – | – | – | > 2.1 | – | – | – | – | 2 µg/mL | – | MIC (Klebsiella pneumoniae; ATCC700603, ATCC 700603, read-out: Kpn(e) MIC): > 64 µg/mL; MIC (Klebsiella pneumoniae; clinical isolate, mucoid, read-out: Kpn(d) MIC): > 64 µg/mL; MIC (Haemophilus influenzae; ATCC49247, Haemophilus influenzae, ATCC 49247, read-out: Hin MIC): 0.5 µg/mL; MIC (Escherichia coli; ATCC25922, Escherichia coli, in vivo strain, ATCC 25922, read-out: Eco(b) MIC): 32 µg/mL; MIC (Escherichia coli; ATCC35218, Escherichia coli, ATCC 35218, read-out: Eco(c) MIC): 64 µg/mL; MIC (Pseudomonas aeruginosa; Pseudomonoas aeruginosa): > 64 µg/mL; MIC (Streptococcus pyogenes; Streptococcus pyrogenes): 1 µg/mL; MIC (Streptococcus pneumoniae; ATCC49619, Streptococcus pneumoniae, ATCC 49619, read-out: Spn(c) MIC): 1 µg/mL; MIC (Streptococcus pneumoniae; in vivo strain, read-out: Spn(b) MIC): 2 µg/mL; MIC (Staphylococcus aureus; ATCC29213, Staphylococcus aureus, in vivo strain, ATCC 29213, read-out: Sau(d) MIC): 1 µg/mL; MIC (Staphylococcus aureus; MRSA, in vivo strain, MRSA, read-out: Sau(f) MIC): 1 µg/mL |
| C[C@@H]1CN2c3c(cc4c(N5C(=O)OC[C@@H]5Cc5ccccc5)noc4c3F)CC3(C(=O)NC(=O)NC3=O)[C@H]2[C@H](C)O1 [Example 11, (2R,4S,4aS)-8-[(4S)-4-Benzyl-2-oxo-1,3-oxazolidin-3-yl]-11-fluoro-2,4-dimethyl-1,2,4,4a-tetrahydro-2′H,6H-spiro[1,4-oxazino[4,3-a][1,2]oxazolo[4,5-g]quinoline-5,5′-pyrimidine]-2′,4′,6′(1′H,3′H)-trione] | > 200 | 3.1 | 50 | > 200 | 1.2 | 3.1 | 3.1 | 3.1 | 1.6 | 1.6 µM | 25 | – |
| COC[C@@H]1CN(c2noc3c(F)c4c(cc23)CC2(C(=O)NC(=O)NC2=O)[C@H]2[C@H](C)O[C@H](C)CN42)C(=O)O1 [Example 35] | > 200 | 0.78 | 50 | > 200 | 0.31 | 0.2 | 0.39 | 0.39 | < 0.2 | 1.6 µM | 0.39 | – |
| CSC[C@H]1COC(=O)N1c1noc2c(F)c3c(cc12)CC1(C(=O)NC(=O)NC1=O)[C@H]1[C@H](C)O[C@H](C)CN31 [Example 45] | 200 | 0.39 | 25 | > 200 | 0.26 | 0.39 | 0.39 | 0.55 | < 0.2 | 0.39 µM | 0.78 | – |
| C[C@@H]1CN2c3c(cc4c(N5C(=O)OC[C@@H]5C(F)F)noc4c3F)CC3(C(=O)NC(=O)NC3=O)[C@H]2[C@H](C)O1 [Example 51] | 100 | 0.39 | 12 | > 200 | 0.43 | 0.55 | 0.78 | 0.78 | 0.28 | 0.55 µM | 0.78 | – |
| C[C@@H]1CN2c3c(cc4c(N5C(=O)OC[C@@H]5CF)noc4c3F)CC3(C(=O)NC(=O)NC3=O)[C@H]2[C@H](C)O1 [Example 15, (2R,4S,4aS)-11-Fluoro-8-[(4R)-4-(fluoromethyl)-2-oxo-1,3-oxazolidin-3-yl]-2,4-dimethyl-1,2,4,4a-tetrahydro-2′H,6H-spiro[1,4-oxazino[4,3-a][1,2]oxazolo[4,5-g]quinoline-5,5′-pyrimidine]-2′,4′,6′(1′H,3′H)-trione] | > 200 | < 0.2 | 12 | > 200 | 0.13 | < 0.2 | 0.28 | 0.39 | 0.28 | 0.78 µM | 0.39 | – |
| C[C@@H]1CN2c3c(cc4c(N5C[C@@H](CF)OC5=O)noc4c3F)CC3(C(=O)NC(=O)NC3=O)[C@H]2[C@H](C)O1 [Example 19] | 200 | 0.28 | 8.8 | > 200 | 0.16 | < 0.2 | < 0.2 | 0.24 | 0.14 | 0.78 µM | 0.28 | – |
| C[C@@H]1CN2c3c(cc4c(N5C(=O)OC[C@@H]5CCCO)noc4c3F)CC3(C(=O)NC(=O)NC3=O)[C@H]2[C@H](C)O1 [Example 29, (2R,4S,4aS)-11-Fluoro-8-((S)-4-(3-hydroxypropyl)-2-oxooxazolidin-3-yl)-2,4-dimethyl-2,4,4a,6-tetrahydro-1H,1′H-spiro[isoxazolo[4,5-g][1,4]oxazino[4,3-a]quinoline-5,5′-pyrimidine]-2′,4′,6′(3′H)-trione] | > 200 | 0.78 | 100 | > 200 | 0.27 | 0.39 | 0.39 | 0.78 | 3.1 | 12 µM | 3.1 | – |
| C[C@@H]1CN2c3c(cc4c(N5C[C@H](c6ccccn6)OC5=O)noc4c3F)CC3(C(=O)NC(=O)NC3=O)[C@H]2[C@H](C)O1 [Example 53, (2R,4S,4aS)-11-Fluoro-2,4-dimethyl-8-((R)-2-oxo-5-(pyridin-2-yl)oxazolidin-3-yl)-2,4,4a,6-tetrahydro-1H,1′H-spiro[isoxazolo[4,5-g][1,4]oxazino[4,3-a]quinoline-5,5′-pyrimidine]-2′,4′,6′(3′H)-trione] | > 200 | 1.1 | 35 | > 200 | 0.38 | 0.464 | 0.39 | 0.55 | 0.098 | 0.39 µM | 0.55 | – |
| C[C@@H]1CN2c3c(cc4c(N5C(=O)OC[C@@H]5c5ncccn5)noc4c3F)CC3(C(=O)NC(=O)NC3=O)[C@H]2[C@H](C)O1 [Example 64, (2R,4S,4aS)-11-fluoro-2,4-dimethyl-8-((S)-2-oxo-4-(pyrimidin-2-yl)oxazolidin-3-yl)-2,4,4a,6-tetrahydro-1H,1′H-spiro[isoxazolo[4,5-g][1,4]oxazino[4,3-a]quinoline-5,5′-pyrimidine]-2′,4′,6′(3′H)-trione] | > 200 | 3.1 | > 200 | > 200 | > 2.1 | 6.2 | 12 | 6.2 | 6.2 | 25 µM | 25 | – |
| CO[C@H](C)[C@H]1COC(=O)N1c1noc2c(F)c3c(cc12)CC1(C(=O)NC(=O)NC1=O)[C@H]1[C@H](C)O[C@H](C)CN31 [Example 59] | > 200 | 1.6 | 100 | > 200 | 0.86 | 1.6 | 1.6 | 1.6 | 0.78 | 1.6 µM | 3.1 | – |
